Test results: patent US11000033B2, “Ketone or oxime compound, and herbicide” (NISSAN CHEMICAL CORPORATION, priority 2014, dated 2021)

Experiments:
Type in all cases: in vivo
Monochoria vaginalis = experiment: Test Example 1: herbicidal activity, application before weed generation in submerged conditions (symbol C); conditions: application herbicide amount 320 g/ha
Method in brief: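 Weed control was rated three weeks after treatment on a 0–5 scale, from 5% or lower up to 90% or more. Pre-emergence water-surface application of diluted emulsion at a predetermined rate was made on the day of sowing, in flooded (4 cm water) pots containing rice seedlings, kept at 25–30 °C under glass.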

[1] = system: Echinochloa oryzacola Vasing.; experiment: Test Example 2: herbicidal activity, application during weed generation in submerged conditions (symbol A); conditions: Table 23; application herbicide amount 320 g/ha; grade 0-5 by criteria of Test Example 1
Method in brief: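 Read-out: herbicidal effect on each species rated on a visual scale 3 weeks after treatment. Plants were raised together from seed in flooded alluvial soil (4 cm water) at 25° C. to 30° C. and treated at one to two leaves by water-surface application of diluted emulsion.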

Leptochloa chinensis = experiment: Test Example 3: herbicidal effect by foliage application, Wagner pot (symbol D); conditions: application herbicide amount 320 g/ha
Method in brief: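 Scoring took place 3 weeks after application, using fixed criteria. Plants had been raised from seed for 14 days at 25 to 30 °C in submerged alluvial soil before a diluted emulsion of the test compound was sprayed uniformly on the leaves.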

Digitaria ciliaris = experiment: Test Example 4: herbicidal effect by soil treatment (symbol F)
Method in brief: (§1)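 Seeds were sown in sterilized diluvial soil, covered with about 1.5 cm of soil, and the soil surface was sprayed with a water-diluted emulsion of the compound at a predetermined rate. Plants grew in a greenhouse at 25° C. to 30° C.; effects were scored visually 3 weeks after application.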

Setaria viridis = experiment: Test Example 4: herbicidal effect by soil treatment (symbol G)
Method in brief: as §1

Chenopodium album [2] = experiment: Test Example 4: herbicidal effect by soil treatment (symbol O)
Method in brief: as §1

Apera spica-venti = experiment: Test Example 5: herbicidal effect by foliage application, plastic box (symbol L); conditions: 320 g/ha, 3 weeks after application
Method in brief: (§2)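 Greenhouse foliar test: seedlings at 14 days, grown 25° C. to 30° C. in sterilized diluvial soil; compound applied as an aqueous dilution of an emulsion; response read 3 weeks after spraying.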

Abutilon theophrasti = experiment: Test Example 5: herbicidal effect by foliage application, plastic box (symbol M); conditions: 320 g/ha, 3 weeks after application
Method in brief: as §2

Amaranthus retroflexus = experiment: Test Example 5: herbicidal effect by foliage application, plastic box (symbol N); conditions: 320 g/ha, 3 weeks after application
Method in brief: as §2

Chenopodium album [3] = experiment: Test Example 5: herbicidal effect by foliage application, plastic box (symbol O); conditions: 320 g/ha, 3 weeks after application
Method in brief: as §2

Galium spurium = experiment: Test Example 5: herbicidal effect by foliage application, plastic box (symbol Q); conditions: 320 g/ha, 3 weeks after application
Method in brief: as §2

corn = experiment: Test Example 5: effect on crop by foliage application, plastic box (symbol c); conditions: 320 g/ha, 3 weeks after application
Method in brief: (§3)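 Greenhouse culture at 25° C. to 30° C. followed spot-like sowing into sterilized diluvial soil, with seed covered by roughly 1.5 cm of soil.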

soybean = experiment: Test Example 5: effect on crop by foliage application, plastic box (symbol d); conditions: 320 g/ha, 3 weeks after application
Method in brief: as §3

beet = experiment: Test Example 5: effect on crop by foliage application, plastic box (symbol f); conditions: 320 g/ha, 3 weeks after application
Method in brief: as §3

rapeseed = experiment: Test Example 5: effect on crop by foliage application, plastic box (symbol g); conditions: 320 g/ha, 3 weeks after application
Method in brief: as §3

[4] = application herbicide amount 320 g/ha

Compound	Herbicidal effect grade, C: Monochoria vaginalis (Monochoria vaginalis)	Herbicidal effect grade, A: Echinochloa oryzacola Vasing. [1]	herbicidal effect on D (Leptochloa chinensis), grade 0-5 (Leptochloa chinensis)	F: Digitaria ciliaris, herbicidal effect grade (Digitaria ciliaris; [4])	G: Setaria viridis, herbicidal effect grade (Setaria viridis; [4])	O: Chenopodium album, herbicidal effect grade (Chenopodium album [2]; [4])	L: Apera spica-venti, herbicidal effect grade (Apera spica-venti)	M: Abutilon theophrasti, herbicidal effect grade (Abutilon theophrasti)	N: Amaranthus retroflexus, herbicidal effect grade (Amaranthus retroflexus)	O: Chenopodium album, herbicidal effect grade (Chenopodium album [3])	Q: Galium spurium, herbicidal effect grade (Galium spurium)	c: corn, effect on crop grade (corn)	d: soybean, effect on crop grade (soybean)	f: beet, effect on crop grade (beet)	g: rapeseed, effect on crop grade (rapeseed)	F: Digitaria ciliaris, herbicidal effect grade (Digitaria ciliaris; 320 g/ha)	G: Setaria viridis, herbicidal effect grade (Setaria viridis; 320 g/ha)	O: Chenopodium album, herbicidal effect grade (Chenopodium album [2]; 320 g/ha)	L: Apera spica-venti, herbicidal effect (criteria 0-5) (Apera spica-venti)	M: Abutilon theophrasti, herbicidal effect (criteria 0-5) (Abutilon theophrasti)	further results
CON=C(C)C1CC(O)=C(c2c(C)cc(C)cc2C)C1=O (mixture of isomers) [3-002]	0 (Herbicidal ratio of 5% or lower (almost no effect))	0 (Herbicidal ratio of 5% or lower (almost no effect))	0 (Herbicidal ratio of 5% or lower (almost no effect))	0 (Herbicidal ratio of 5% or lower (almost no effect))	0 (Herbicidal ratio of 5% or lower (almost no effect))	0 (Herbicidal ratio of 5% or lower (almost no effect))	0 (Herbicidal ratio of 5% or lower (almost no effect))	0 (Herbicidal ratio of 5% or lower (almost no effect))	0 (Herbicidal ratio of 5% or lower (almost no effect))	0 (Herbicidal ratio of 5% or lower (almost no effect))	0 (Herbicidal ratio of 5% or lower (almost no effect))	0 (Herbicidal ratio of 5% or lower (almost no effect))	0 (Herbicidal ratio of 5% or lower (almost no effect))	0 (Herbicidal ratio of 5% or lower (almost no effect))	0 (Herbicidal ratio of 5% or lower (almost no effect))						
COCC(=O)CC1CC(O)=C(c2c(C)cc(C)cc2C)C1=O (stereo not drawn) [2-007]	0 (Herbicidal ratio of 5% or lower (almost no effect))	3 (Herbicidal ratio of 40% or higher and lower than 70%)	5 (Herbicidal ratio of 90% or more (almost completely withered))	5 (Herbicidal ratio of 90% or more (almost completely withered))	4 (Herbicidal ratio of 70% or higher and lower than 90%)	0 (Herbicidal ratio of 5% or lower (almost no effect))	3 (Herbicidal ratio of 40% or higher and lower than 70%)	0 (Herbicidal ratio of 5% or lower (almost no effect))	0 (Herbicidal ratio of 5% or lower (almost no effect))	0 (Herbicidal ratio of 5% or lower (almost no effect))	0 (Herbicidal ratio of 5% or lower (almost no effect))	1 (Herbicidal ratio of 5% or higher and lower than 20%)	0 (Herbicidal ratio of 5% or lower (almost no effect))	0 (Herbicidal ratio of 5% or lower (almost no effect))	1 (Herbicidal ratio of 5% or higher and lower than 20%)						
CON=C(C)CC1CC(OC(=O)c2ccccc2C(F)(F)F)=C(c2c(C)cc(C)cc2C)C1=O (stereo not drawn) [1-154]	2 (Herbicidal ratio of 20% or higher and lower than 40%)	5 (Herbicidal ratio of 90% or more (almost completely withered))	5 (Herbicidal ratio of 90% or more (almost completely withered))													5 (Herbicidal ratio of 90% or more (almost completely withered))	5 (Herbicidal ratio of 90% or more (almost completely withered))	0 (Herbicidal ratio of 5% or lower (almost no effect))	5 (Herbicidal ratio of 90% or more (almost completely withered))	4 (Herbicidal ratio of 70% or higher and lower than 90%)	N: Amaranthus retroflexus, herbicidal effect (criteria 0-5) (Amaranthus retroflexus): 3 (Herbicidal ratio of 40% or higher and lower than 70%); O: Chenopodium album, herbicidal effect (criteria 0-5) (Chenopodium album [3]): 1 (Herbicidal ratio of 5% or higher and lower than 20%); Q: Galium spurium, herbicidal effect (criteria 0-5) (Galium spurium): 3 (Herbicidal ratio of 40% or higher and lower than 70%); c: corn, effect on crop (criteria 0-5) (corn): 3 (Herbicidal ratio of 40% or higher and lower than 70%); d: soybean, effect on crop (criteria 0-5) (soybean): 3 (Herbicidal ratio of 40% or higher and lower than 70%); f: beet, effect on crop (criteria 0-5) (beet): 1 (Herbicidal ratio of 5% or higher and lower than 20%); g: rapeseed, effect on crop (criteria 0-5) (rapeseed): 4 (Herbicidal ratio of 70% or higher and lower than 90%)
CON=C(C)CC1CC(O)=C(c2c(C)cc(-c3ccccc3)cc2C)C1=O (stereo not drawn) [6-015]	5 (Herbicidal ratio of 90% or more (almost completely withered))	5 (Herbicidal ratio of 90% or more (almost completely withered))	5 (Herbicidal ratio of 90% or more (almost completely withered))	5 (Herbicidal ratio of 90% or more (almost completely withered))	5 (Herbicidal ratio of 90% or more (almost completely withered))	3 (Herbicidal ratio of 40% or higher and lower than 70%)	5 (Herbicidal ratio of 90% or more (almost completely withered))	2 (Herbicidal ratio of 20% or higher and lower than 40%)	2 (Herbicidal ratio of 20% or higher and lower than 40%)	4 (Herbicidal ratio of 70% or higher and lower than 90%)	2 (Herbicidal ratio of 20% or higher and lower than 40%)	5 (Herbicidal ratio of 90% or more (almost completely withered))	3 (Herbicidal ratio of 40% or higher and lower than 70%)	0 (Herbicidal ratio of 5% or lower (almost no effect))	4 (Herbicidal ratio of 70% or higher and lower than 90%)						
C=CCOC(=O)OC1=C(c2c(C)cc(C)cc2C)C(=O)C(CC(C)=NOC)C1 (stereo not drawn) [1-146]	1 (Herbicidal ratio of 5% or higher and lower than 20%)	5 (Herbicidal ratio of 90% or more (almost completely withered))	5 (Herbicidal ratio of 90% or more (almost completely withered))													5 (Herbicidal ratio of 90% or more (almost completely withered))	5 (Herbicidal ratio of 90% or more (almost completely withered))	0 (Herbicidal ratio of 5% or lower (almost no effect))	5 (Herbicidal ratio of 90% or more (almost completely withered))	5 (Herbicidal ratio of 90% or more (almost completely withered))	N: Amaranthus retroflexus, herbicidal effect (criteria 0-5) (Amaranthus retroflexus): 0 (Herbicidal ratio of 5% or lower (almost no effect)); O: Chenopodium album, herbicidal effect (criteria 0-5) (Chenopodium album [3]): 2 (Herbicidal ratio of 20% or higher and lower than 40%); Q: Galium spurium, herbicidal effect (criteria 0-5) (Galium spurium): 3 (Herbicidal ratio of 40% or higher and lower than 70%); c: corn, effect on crop (criteria 0-5) (corn): 5 (Herbicidal ratio of 90% or more (almost completely withered)); d: soybean, effect on crop (criteria 0-5) (soybean): 4 (Herbicidal ratio of 70% or higher and lower than 90%); f: beet, effect on crop (criteria 0-5) (beet): 4 (Herbicidal ratio of 70% or higher and lower than 90%); g: rapeseed, effect on crop (criteria 0-5) (rapeseed): 5 (Herbicidal ratio of 90% or more (almost completely withered))
